Paper PMC5193075 (The Journal of Pharmacology and Experimental Therapeutics, 2017)

Assays:
[1] = system: cryopreserved human primary hepatocytes; assay: Drug depletion; details: for interdonor variability in unbound intrinsic clearance (IDV): individual-donor data; for interdonor variability in unbound intrinsic clearance (IDV) / interwell variability in unbound intrinsic clearance (IWV): parentheses = relative standard error; for CLint(u) ratio individual-donor/pooled hepatocytes: parentheses = 95% confidence intervals (Fieller's theorem)
[2] = Unbound drug fraction in cell culture medium by rapid equilibrium dialysis; type: in vitro ADME; details: bovine, bovine serum albumin-containing cell culture medium
[3] = Prediction of in vivo hepatic clearance from liver MPS data; parameters: species or system human
[4] = individual-donor data (within donor)

SMILES | interdonor variability in unbound intrinsic clearance (IDV) [1] | fraction unbound [2] | fold-error (underprediction) of in vivo hepatic clearance ([3]; parallel tube (PT) liver model) | fold-error (underprediction) of in vivo hepatic clearance ([3]; well stirred (WS) liver model) | interwell variability in unbound intrinsic clearance (IWV) [1, 4] | interdonor variability in unbound intrinsic clearance (IDV) ([1]; listed as phenacetin) | CLint(u) ratio individual-donor/pooled hepatocytes [1] | interwell variability in unbound intrinsic clearance (IWV) ([1]; pooled hepatocytes data)
O=C(O)Cc1ccccc1Nc1c(Cl)cccc1Cl [Diclofenac, diclofenac] | 36.2% (71.5%) CV% | 0.13 |  |  |  |  |  | 
C[C@]12C=CC(=O)C=C1CC[C@@H]1[C@@H]2[C@@H](O)C[C@@]2(C)[C@H]1CC[C@]2(O)C(=O)CO [Prednisolone, prednisolone] | 29.3% (58.1%) CV% | 0.94 |  |  | 21.5% (70.0%) CV% |  | 0.89 (0.63, 1.16) | 
CC(C)NCC(O)COc1cccc2ccccc12 (stereo not shown) [Propranolol, propranolol] |  | 0.98 |  |  |  |  |  | 

Now from value to molecule:

interdonor variability in unbound intrinsic clearance (IDV) [1] | fraction unbound [2] | fold-error (underprediction) of in vivo hepatic clearance ([3]; parallel tube (PT) liver model) | fold-error (underprediction) of in vivo hepatic clearance ([3]; well stirred (WS) liver model) | interwell variability in unbound intrinsic clearance (IWV) [1, 4] | interdonor variability in unbound intrinsic clearance (IDV) ([1]; listed as phenacetin) | CLint(u) ratio individual-donor/pooled hepatocytes [1] | interwell variability in unbound intrinsic clearance (IWV) ([1]; pooled hepatocytes data) | SMILES
 | 0.31 |  |  |  |  |  |  | CC(C)Cc1ccc(C(C)C(=O)O)cc1 (stereo not shown) [Ibuprofen, ibuprofen]
24.1% (80.4%) CV% | 0.98 | 1.7 fold | 2.1 fold | 26.1% (65.2%) CV% | 24.1 CV% | 0.92 (0.61, 1.47) | 30.7% (41.5%) CV% | CCOc1ccc(NC(C)=O)cc1 [Phenacetin, phenacetin]
